Experiments:
Format in all cases: in vivo
Details in all cases: Postemergence
[1] = test system: pigweed (Amaranthus retroflexus); test: Test B pre-/postemergence plant response
Outline: (§1)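 Pre-em in loam/sand; post-em at 1–4 leaf (2–18 cm) in peat mix. Solvent + surfactant formulation. Greenhouse 13–15 d; visual % control vs untreated, 0–100.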

corn (Zea mays) = test: Test B pre-/postemergence plant response
Outline: as §1

[2] = test system: yellow nutsedge (Cyperus esculentus); test: Test B pre-/postemergence plant response
Outline: as §1

[3] = test system: lambsquarters (Chenopodium album); test: Test B pre-/postemergence plant response
Outline: as §1

[4] = test system: johnsongrass (Sorghum halepense); test: Test B pre-/postemergence plant response
Outline: as §1

[5] = test system: goosegrass (Eleusine indica); test: Test B pre-/postemergence plant response
Outline: as §1

[6] = test system: green foxtail (Setaria viridis); test: Test B pre-/postemergence plant response
Outline: as §1

soybean (Glycine max) = test: Test B pre-/postemergence plant response
Outline: as §1

[7] = test system: velvetleaf (Abutilon theophrasti); test: Test B pre-/postemergence plant response
Outline: as §1

[8] = test system: giant foxtail (Setaria faberii); test: Test B pre-/postemergence plant response
Outline: as §1

[9] = test system: canarygrass (Phalaris minor); test: Test B postemergence plant response
Outline: (§2)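 Plants at the 1- to 4-leaf stage (2 to 18 cm tall), grown in pots of peat moss/vermiculite medium with wetting agent and starter nutrients, received postemergence applications of test chemicals. After 13 to 15 days in a greenhouse, injury was rated visually against untreated controls on a 0 (no effect) to 100 (complete control) scale.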

[10] = test system: chickweed (Stellaria media); test: Test B postemergence plant response
Outline: as §2

[11] = test system: winter barley (Hordeum vulgare); test: Test B postemergence plant response
Outline: as §2

[12] = test system: windgrass (Apera spica-venti); test: Test B postemergence plant response
Outline: as §2

[13] = 31 g ai/ha, 0 to 100 scale (0 no effect, 100 complete control)
[14] = 62 g ai/ha, scale 0 to 100 (0 no effect, 100 complete control)
[15] = 125 g ai/ha, scale 0 to 100 (0 no effect, 100 complete control)
[16] = 250 g ai/ha, scale 0 to 100 (0 no effect, 100 complete control), 13 to 15 days

SMILES: Cc1cc(-n2c(-c3cccc(F)c3)ncc(C(=O)C3=C(O)CCCC3=O)c2=O)ccc1F [Compound 191]
- Plant response rating, Pigweed [1, 13]: 80
- Plant response rating, Pigweed [1, 14]: 85
- Plant response rating, Pigweed [1, 15]: 98
- Plant response rating, Pigweed [1, 16]: 100
- Plant response rating, Corn (corn (Zea mays); [13]): 65
- Plant response rating, Corn (corn (Zea mays); [14]): 75
- Plant response rating, Corn (corn (Zea mays); [15]): 75
- Plant response rating, Corn (corn (Zea mays); [16]): 85
- Plant response rating, Nutsedge, Yellow [2, 13]: 40
- Plant response rating, Nutsedge, Yellow [2, 14]: 40
- Plant response rating, Nutsedge, Yellow [2, 15]: 55
- Plant response rating, Nutsedge, Yellow [2, 16]: 70
- Plant response rating, Lambsquarters [3, 13]: 75
- Plant response rating, Lambsquarters [3, 14]: 80
- Plant response rating, Lambsquarters [3, 15]: 98
- Plant response rating, Lambsquarters [3, 16]: 100
- Plant response rating, Johnsongrass [4, 13]: 70
- Plant response rating, Johnsongrass [4, 14]: 100
- Plant response rating, Johnsongrass [4, 15]: 100
- Plant response rating, Johnsongrass [4, 16]: 100
- Plant response rating, Goosegrass [5, 13]: 95
- Plant response rating, Goosegrass [5, 14]: 98
- Plant response rating, Goosegrass [5, 15]: 100
- Plant response rating, Goosegrass [5, 16]: 100
- Plant response rating, Foxtail, Green [6, 13]: 40
- Plant response rating, Foxtail, Green [6, 14]: 55
- Plant response rating, Foxtail, Green [6, 15]: 80
- Plant response rating, Foxtail, Green [6, 16]: 98
- Plant response rating, Soybean (soybean (Glycine max); [13]): 90
- Plant response rating, Soybean (soybean (Glycine max); [14]): 95
- Plant response rating, Soybean (soybean (Glycine max); [15]): 100
- Plant response rating, Soybean (soybean (Glycine max); [16]): 100
- Plant response rating, Velvetleaf [7, 13]: 75
- Plant response rating, Velvetleaf [7, 14]: 80
- Plant response rating, Velvetleaf [7, 15]: 90
- Plant response rating, Velvetleaf [7, 16]: 100
- Plant response rating, Foxtail, Giant [8, 13]: 100
- Plant response rating, Foxtail, Giant [8, 14]: 100
- Plant response rating, Foxtail, Giant [8, 15]: 100
- Plant response rating, Foxtail, Giant [8, 16]: 100
- Plant response rating, Canarygrass [9, 13]: 20
- Plant response rating, Canarygrass [9, 14]: 50
- Plant response rating, Canarygrass [9, 15]: 60
- Plant response rating, Canarygrass [9, 16]: 85
- Plant response rating, Chickweed [10, 13]: 98
- Plant response rating, Chickweed [10, 14]: 98
- Plant response rating, Chickweed [10, 15]: 98
- Plant response rating, Chickweed [10, 16]: 100
- Plant response rating, Barley [11, 13]: 5
- Plant response rating, Barley [11, 14]: 50
- Plant response rating, Barley [11, 15]: 50
- Plant response rating, Barley [11, 16]: 70
- Plant response rating, Windgrass [12, 13]: 55
- Plant response rating, Windgrass [12, 14]: 85
- Plant response rating, Windgrass [12, 15]: 85
- Plant response rating, Windgrass [12, 16]: 100
